Reference: patent publication EP3313408B1, “DROSPIRENONE-BASED CONTRACEPTIVE FOR A PATIENT AFFECTED WITH EXCESS WEIGHT” (Laboratorios Leon Farma SA, priority 2015, dated 2016)

Assay: Trial CF111/302: number of days with bleeding and/or spotting over 9 treatment cycles
Type: in vivo, women
Procedure: The study CF111/302 below represents a pivotal, multicentre, double-blind, double-dummy, randomised trial on the contraceptive efficacy, tolerability and safety of LF111 (DRSP) over 9 cycles of 28 days of treatment (24 active test product tablets followed by 4 days of placebo tablets).
LF111 film-coated tablets (test product; 24 tablets containing 4 mg DRSP followed by 4 placebo tablets; León Farma) was orally administered during this trial. LF111 tablets are of the following formula: […]
This prospective, multicentre, randomised, double-blind, double-dummy trial was conducted on 857 women without uncontrolled current diseases, at risk of pregnancy, at the age of 18-45 years, systolic blood pressure < 140 mmHg, diastolic blood pressure < 90 mmHg followed in approximately 73 centres in Austria, Czech Republic, Germany, Hungary, Poland, Romania, Slovakia and Spain.
After providing informed consent at visit 1a (screening; V 1a) and receiving study medication at visit 1b, subjects will attend visits 2 to 4 at day 24±2 of the 1st, 3rd, and 6th cycle, and visit 5 (V5) at day 29+2 of the 9th cycle. The follow-up (visit 6; V6) will take place 7-10 days after last LF1 1 1 intake.
The planned total duration of the trial was set to be 16 months, with a maximum of 6 months for the enrolment process, a maximum of 9 months for the contraceptive treatment per se and 10 days for the follow-up step. The duration of contraceptive treatment for the individual women is 9 x 28 days. […]

C#C[C@]1(O)CC[C@H]2[C@@H]3CCC4=CCCC[C@@H]4[C@H]3C(=C)C[C@@]21CC [desogestrel]
Bleeding or spotting Mean # days (Period cycles 2-4, BMI < 30 kg/m^2): 16.6 days | Bleeding or spotting Mean # days (Period cycles 2-4, BMI ≥ 30 kg/m^2): 21.8 days | Bleeding or spotting Mean # days (Period cycles 2-6, BMI < 30 kg/m^2): 24.1 days | Bleeding or spotting Mean # days (Period cycles 2-6, BMI ≥ 30 kg/m^2): 16.3 days | Bleeding or spotting Mean # days (Period cycles 2-9, BMI < 30 kg/m^2): 34.7 days | Bleeding or spotting Mean # days (Period cycles 2-9, BMI ≥ 30 kg/m^2): 33.9 days
